Assay: method code SF-AS, from DOI: 10.1021/jm00089a008, PMID: 1317921
Conditions: pH 7.4

logD	SMILES
0.72	CC(C)N(/C=N/c1ccn([C@H]2CC[C@@H](CO)O2)c(=O)n1)C(C)C
1.14	CC(C)N(/C=N/c1ccn([C@H]2C[C@H](F)[C@@H](CO)O2)c(=O)n1)C(C)C
-0.68	O=c1nc(/N=C/N2CCOCC2)ccn1C1CC(F)C(CO)O1 (stereo not drawn)

Source: the SangsterLogP compilation
